Tests used:
Assay in all cases: relative viability (nuclei count vs DMSO), 5 days (fraction); higher = more cells survive
EKVX = system: EKVX
Summary of the method: (§1)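 Lung cancer cell lines, seeded in 1536-well plates, were treated the following day by pin tool with a single drug or with five library-drug doses (not always all listed) in √10 steps on top of a fixed anchor-drug dose. Cells were fixed and nuclei stained in one step after 5 days, and nuclei were counted. Relative viability is the nuclei count for treated wells divided by that for vehicle wells, reported as medians of duplicate plates.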

NCI-H1703 = system: NCI-H1703
Summary of the method: as §1

NCI-H1993 = system: NCI-H1993
Summary of the method: as §1

NCI-H2085 = system: NCI-H2085
Summary of the method: as §1

ABC-1 = system: ABC-1
Summary of the method: as §1

NCI-H1648 = system: NCI-H1648
Summary of the method: as §1

NCI-H2126 = system: NCI-H2126
Summary of the method: as §1

HCC-44 = system: HCC-44
Summary of the method: as §1

RERF-LC-KJ = system: RERF-LC-KJ
Summary of the method: as §1

IA-LM = system: IA-LM
Summary of the method: as §1

Compound | relative viability (EKVX; first compound 0.08 µM) | relative viability (EKVX; first compound 0.253 µM) | relative viability (EKVX; first compound 0.8 µM) | relative viability (EKVX; first compound 2.53 µM) | relative viability (NCI-H1703; first compound 0.08 µM) | relative viability (NCI-H1703; first compound 0.253 µM) | relative viability (NCI-H1703; first compound 0.8 µM) | relative viability (NCI-H1703; first compound 2.53 µM) | relative viability (NCI-H1993; first compound 0.08 µM) | relative viability (NCI-H1993; first compound 0.253 µM) | relative viability (NCI-H1993; first compound 0.8 µM) | relative viability (NCI-H1993; first compound 2.53 µM) | relative viability (NCI-H2085; first compound 0.08 µM) | relative viability (NCI-H2085; first compound 0.253 µM) | relative viability (NCI-H2085; first compound 0.8 µM) | relative viability (NCI-H2085; first compound 2.53 µM) | relative viability (ABC-1; first compound 0.08 µM) | relative viability (ABC-1; first compound 0.253 µM) | relative viability (ABC-1; first compound 0.8 µM) | relative viability (ABC-1; first compound 2.53 µM) | relative viability (NCI-H1648; first compound 0.08 µM) | relative viability (NCI-H1648; first compound 0.253 µM) | relative viability (NCI-H1648; first compound 0.8 µM) | relative viability (NCI-H1648; first compound 2.53 µM) | relative viability (NCI-H2126; first compound 0.08 µM) | relative viability (NCI-H2126; first compound 0.253 µM) | relative viability (NCI-H2126; first compound 0.8 µM) | relative viability (NCI-H2126; first compound 2.53 µM) | relative viability (HCC-44; first compound 0.08 µM) | relative viability (HCC-44; first compound 0.253 µM) | relative viability (HCC-44; first compound 0.8 µM) | relative viability (HCC-44; first compound 2.53 µM) | relative viability (RERF-LC-KJ; first compound 0.08 µM) | relative viability (RERF-LC-KJ; first compound 0.253 µM) | relative viability (RERF-LC-KJ; first compound 0.8 µM) | relative viability (RERF-LC-KJ; first compound 2.53 µM) | relative viability (IA-LM; first compound 0.08 µM) | relative viability (IA-LM; first compound 0.253 µM) | relative viability (IA-LM; first compound 0.8 µM) | relative viability (IA-LM; first compound 2.53 µM)
COc1nc(C)cnc1NS(=O)(=O)c1cccnc1-c1ccc(-c2nnco2)cc1 [Zibotentan] + NC(=O)Nc1cc(-c2cccc(F)c2)sc1C(=O)N[C@H]1CCCNC1 [AZD7762] (partner 0.2 µM) | 0.742 | 0.648 | 0.718 | 0.766 | 0.139 | 0.114 | 0.108 | 0.121 | 0.667 | 0.778 | 0.728 | 0.881 | 1.06 | 0.953 | 0.826 | 0.959 | 0.711 | 0.86 | 0.765 | 0.843 | 0.637 | 0.596 | 0.596 | 0.63 | 0.986 | 0.987 | 0.915 | 1.04 | 1.01 | 0.962 | 0.968 | 1.03 | 1.16 | 0.938 | 0.841 | 0.909 |  |  |  | 
COc1nc(C)cnc1NS(=O)(=O)c1cccnc1-c1ccc(-c2nnco2)cc1 [Zibotentan] + O=C(CCCCCCC(=O)Nc1ccccc1)NO [Vorinostat] (partner 1 µM) | 0.675 | 0.818 | 0.727 | 0.777 |  |  |  |  | 1.05 | 0.764 | 0.826 | 0.988 | 0.762 | 0.766 | 0.769 | 0.824 | 1.01 | 0.77 | 1.05 | 1.53 | 0.574 | 0.331 | 0.54 | 0.483 | 0.844 | 0.765 | 0.651 | 0.831 | 1.12 | 1.08 | 1.02 | 1.08 | 0.847 | 0.541 | 0.74 | 0.679 | 0.881 | 0.981 | 0.9 | 0.939
